Series [1] in a line: Plasma pharmacokinetics in mice after single oral 50 mg/kg M-III. Type of series: in vivo. The conditions noted are these: male C57BL/6 mice. As to the method:
To the plasma pharmacokinetics of 5-[[4-[2-[5-acetylpyridin-2-yl]ethoxy]phenyl]methyl]-1,3-thiazolidine-2,4-dione (M-III) and 5-[[4-[2-[5-(1-hydroxyethyl)pyridin-2-yl]ethoxy]phenyl]methyl]-1,3-thiazolidine-2,4-dione (M-IV) were determined in male C57BL/6 mice following a single oral (50 mg/kg) dose administration of M-III.
Nine animals were administered orally with suspension formulation of M-III in 0.1% Tween 80 and 99.9% NaCMC in water (0.5% w/v) at 50 mg/kg dose. The dosing volume administered was 10 mL/kg. The blood samples were collected from set of three mice at each time point in labeled micro centrifuge tube containing K2EDTA solution as anticoagulant at Pre-dose, 0.25, 0.5, 1, 2, 4, 8, 12 and 24 hr. Plasma samples were separated by centrifugation of whole blood and stored below −70±10° C. until bioanalysis. All samples were processed for analysis by protein precipitation using acetonitrile and analyzed with fit-for-purpose LC-MS/MS method (LLOQ=2.46 ng/mL for M-III and 2.49 ng/mL for M-IV). Pharmacokinetic parameters were calculated using the non-compartmental analysis tool of Phoenix WinNonlin® (Version 6.3).

The nature of series [2]: Plasma pharmacokinetics in mice after single oral 4.5 mg/kg M-III or MIN-102. It is filed as in vivo, male C57BL/6 mice. How it is done:
The plasma pharmacokinetics of 5-[[4-[2-[5-acetylpyridin-2-yl]ethoxy]phenyl]methyl]-1,3-thiazolidine-2,4-dione (M-III) and 5-[[4-[2-[5-(1-hydroxyethyl)pyridin-2-yl]ethoxy]phenyl]methyl]-1,3-thiazolidine-2,4-dione (M-IV) were determined in male C57BL/6 mice following a single oral (4.5 mg/kg) dose of either M-III or MIN-102 (5-[[4-[2-[5-(1-hydroxyethyl)pyridin-2-yl]ethoxy]phenyl]methyl]-1,3-thiazolidine-2,4-dione hydrochloride).
Animals were administered orally with a suspension formulation of either M-III or MIN-102 in 0.1% Tween 80 and 99.9% NaCMC in water (0.5% w/v) at 4.5 mg/kg dose. The blood samples were collected from a set of three mice at each time point in labeled micro centrifuge tubes containing K2EDTA solution as anticoagulant at Pre-dose, 0.25, 0.5, 1, 2, 4, 8, 12 and 24 hr. Plasma samples were separated by centrifugation of whole blood and stored below −70±10° C. until bioanalysis. All samples were processed for analysis by protein precipitation using acetonitrile and analyzed with fit-for-purpose LC-MS/MS method (LLOQ=2.46 ng/mL for M-III and 2.49 ng/mL for M-IV). Pharmacokinetic parameters were calculated using the non-compartmental analysis tool of Phoenix WinNonlin® (Version 6.3).

Series [3] is described as follows: Plasma pharmacokinetics in rats after single oral 10 mg/kg M-III or MIN-102. Type of series: in vivo, male Sprague Dawley rats. As to the method:
The plasma pharmacokinetics of 5-[[4-[2-[5-acetylpyridin-2-yl]ethoxy]phenyl]methyl]-1,3-thiazolidine-2,4-dione (M-III; M3) and 5-[[4-[2-[5-(1-hydroxyethyl)pyridin-2-yl]ethoxy]phenyl]methyl]-1,3-thiazolidine-2,4-dione (M-IV; M4) were determined in male Sprague Dawley following a single oral (10 mg/kg) dose administration of either M-III or MIN-102.
Six animals were dosed orally with a suspension formulation of either M-III or MIN-102 in 0.1% Tween 80 and 99.9% CMC (0.5% w/v solution in RO water) at 10 mg/kg.
The dosing volume administered was 10 mL/kg. Blood samples (approximately 60 μL) were collected from retro-orbital plexus of three rats at 0.08, 0.25, 0.5, 1, 2, 4, 8, 12 and 24 hr (IV) and at predose, 0.25, 0.5, 1, 2, 4, 8, 12 and 24 hr. Samples were collected into labeled micro-tubes, containing K2EDTA solution (20% K2EDTA solution) as an anticoagulant. Plasma was immediately harvested from the blood by centrifugation at 4000 rpm for 10 min at 4±2° C. and stored below −70° C. until bioanalysis.
Concentrations of M-III and M-IV in rat plasma samples were determined by fit-for-purpose LC-MS/MS method. Non-Compartmental-Analysis module in Phoenix WinNonlin® (Version 6.3) was used to assess the pharmacokinetic parameters. Peak plasma concentrations (Cax) and time for the peak plasma concentrations (Tmax) were the observed values. The areas under the concentration time curve (AUClast and AUCinf) were calculated by linear trapezoidal rule.

A short description of series [4]: Plasma pharmacokinetics in dogs after single oral 3 mg/kg M3 or MIN-102. Type of series: in vivo, male Beagle dogs. As to the method:
The plasma pharmacokinetics of 5-[[4-[2-[5-acetylpyridin-2-yl]ethoxy]phenyl]methyl]-1,3-thiazolidine-2,4-dione (M-III; M3) and 5-[[4-[2-[5-(1-hydroxyethyl)pyridin-2-yl]ethoxy]phenyl]methyl]-1,3-thiazolidine-2,4-dione (M-IV; M4) were determined in male Beagle dogs following a single oral (3 mg/kg) dose administration of either M3 or MIN-102.
Six animals were dosed orally with a suspension formulation of either M-III or MIN-102 in 0.1% Tween 80 and 99.9% CMC (aqueous carboxymethylcellulose 0.5% w/v solution in RO water) at 3 mg/kg. Blood samples (0.5 ml) were collected from the saphenous or cephalic or jugular veins of dogs at predose, 0.5, 1, 2, 4, 6 and 24 hr. Samples were collected into labeled micro-tubes, containing K2EDTA solution (20% K2EDTA solution) as an anticoagulant. Plasma was immediately harvested from the blood by centrifugation at 4000 rpm for 10 min and stored below −70° C. until bioanalysis.
Concentrations of M3 and M-IV in dog plasma samples were determined by fit-for-purpose LC-MS/MS method. Non-Compartmental-Analysis module in Phoenix WinNonlin® (Version 6.3) was used to assess the pharmacokinetic parameters. Peak plasma concentrations (Cmax) and time for the peak plasma concentrations (Tmax) were the […] observed values. The areas under the concentration time curve (AUClast and AUCinf) were calculated by linear trapezoidal rule.

The subject of the next series is MDR1. As to the kind of experiment: MDCKII monolayer assay. It is filed as in vitro ADME. The conditions noted are these: dog, MDCK; after 120 minutes, MDCKII-MDR1 and MDCKII-Mock; loss due to conversion to M-IV. How it is done:
The monolayer assays were performed using parental and MDR1 transfected MDCKII cell monolayers. MDCKII and MDCKII-MDR1 cells were cultured in Dulbecco's Modified Eagle's Medium with 4.5 g/L glucose (DMEM) supplemented with 10% (v/v) fetal bovine serum (FBS) at 37±1° C. in an atmosphere of 95:5 air:CO2 in cell culture flasks prior to seeding into 24-transwell inserts. Transfected and parental MDCKII cells were cultured on the inserts with 400 μL medium per well on the apical side and 25 mL in a single-well receiver tray for all 24 wells on the basolateral side, for 96 hours. Medium was changed 24 hours before the experiment. Trans-epithelial electric resistance (TEER) of each well was measured to confirm the confluency of the monolayers prior to the experiments. Permeability incubations were carried out in Hank's Buffered Salt Solution (HBSS) at 37±1° C. Apical to basolateral permeability of Lucifer yellow (LY) was assessed as a low permeability control and antipyrine was as a high permeability compound. […] LY samples were analyzed by measuring fluorescence with the following wavelengths: excitation—485 nm emission—520 nm, while the antipyrine samples were analyzed with LC-MS/MS.
As another follow-up, MDCKII-MDR1 substrate experiment was repeated at […] M-III. The amounts of M-III and M-IV were determined at the end of the incubation time. […]

The conditions of series [5]: as described in WO 2015/150476 A1; cited from earlier work.

Results on 1 compound are retold here after patent US20240091210A1, “USE OF 5-[[4-[2-[5-ACETYLPYRIDIN-2-YL]ETHOXY]BENZYL]-1,3-THIAZOLIDINE-2,4-DIONE AND ITS SALTS” (Minoryx Therapeutics S.L., priority 2018, published 2024).

For the compound `CC(=O)c1ccc(CCOc2ccc(CC3SC(=O)NC3=O)cc2)nc1` (stereo not drawn) [M-III, 5-[[4-[2-[5-acetylpyridin-2-yl]ethoxy]phenyl]methyl]-1,3-thiazolidine-2,4-dione], the “share of total exposure (AUC)” value is “about 25%” in series [1]; around 27% in series [2] (after single oral 4.5 mg/kg M-III, male mice); “about 38%” in series [2] (after single oral 4.5 mg/kg MIN-102, male mice); around 53% in series [3] (after single oral 10 mg/kg M-III, male rats); “about 42%” in series [3] (after single oral 10 mg/kg MIN-102, male rats); around 16% in series [4] (after single oral 3 mg/kg M3, male dogs). Moreover, the “share of total exposure (AUC)” value in series [4] (after single oral 3 mg/kg MIN-102, male dogs) is on record as “about 8%”. In the series with MDR1, this compound displayed a recovery at 120 min of 30 to 60%. The blood-brain-barrier penetration result in series [5] was “does not penetrate the BBB”.
